Results published in publication PMC12016938, “A small molecule PKCε inhibitor reduces hyperalgesia induced by paclitaxel or opioid withdrawal” (JCI Insight, 2025).

Tests used:
[1] = test system: self-administration (addictive potential); test: I.v. self-administration of CP612, between-session progressive ratio and demand curve; settings: rat, in vivo
Experimental: We tested the addictive potential of CP612 by examining the extent to which rats are willing to work to obtain CP612. Rats were initially trained to self-administer either saline, morphine (500 μg/kg/i.v. infusion), or 1 of 3 different doses of CP612 (75, 150, or 300 μg/kg/i.v. infusion) for 4 days at fixed ratio 1 (FR1, where 1 nose poke delivers 1 infusion).
During the second phase, the ratio to obtain an infusion increased geometrically every other day (FR1, FR3, FR6, FR12, FR24, FR48, and FR96).
Data (number of self-infusions) were also fitted in an economic-demand curve, which provides an estimate of the motivation to obtain drugs and their addictive potential ([20]). We measured elasticity (α), which is the relative change in consumption as a function of price (i.e., ratio of nose pokes required to obtain an infusion). Behavior is considered “inelastic” when consumption is insensitive to price and “elastic” when consumption is sensitive to price. We also measured Pmax, which is the price at which intake switches from inelastic to elastic. […] (Figure 8B).
Rats not immediately anesthetized were eliminated from the study.
Following this initial acquisition phase at FR1, the ratio to obtain the drug was increased geometrically every other day: FR3 (3 nose pokes are required to obtain 1 infusion of morphine), FR6, FR12, FR24, FR48, and FR96. This allows for analysis of drug consumption as a function of “price” using demand curves for behavioral economics, which can estimate the motivation to obtain drugs and their “addictive potential” ([20]). For this, data from each rat were fitted to the equation log Q = log Q0 + k (e ^–α(Q0 ^C) – 1), where Q represents consumption (number of self-infusions), and Q0 represents the level of consumption at the lowest price. C represents price for the drug (i.e., the ratio), and k is set to a constant accounting for the estimated range of consumption in logarithmic units (k = 4 in these studies). The symbol α is the relative change in consumption across changes in price (ratio). Behavior is considered “inelastic” when consumption is insensitive to price (i.e., the curve is flat, and consumption is maintained despite increases in price), and it switches to “elastic” when consumption is sensitive to price (i.e., when the curve is steep and consumption declines with increases in price). […] We also compared groups for their average intake in the consumption-price curves by measuring α (elasticity) and Pmax.

[2] = test system: morphine self-administration; assay type: in vivo; settings: morphine 500 µg/kg/infusion alone, individual rats and group mean
Experimental: Because many patients with chronic pain take opioids for pain management ([8], [9]), we wanted to know if CP612 would change opioid intake. Therefore, we investigated if adding CP612 to the morphine solution during self-administration (i.e., a cocktail of morphine and CP612) modifies self-administration of morphine. We tested rats from the prior experiment for self-administration of morphine (500 μg/kg/i.v. infusion). Rats were first tested under a FR6 to reestablish responding.
Rats not immediately anesthetized were eliminated from the study. This excluded 2 rats from all experiments.

[3] = test system: paclitaxel-induced hyperalgesia; test: Paclitaxel-induced hyperalgesia, Randall-Selitto paw pressure test; settings: male rats; 1 mg/kg i.p. on days 1, 3, 5, 7
Experimental: We tested if CP612 reverses this hyperalgesia. Male rats received repeated injections of paclitaxel (1 mg/kg, i.p. on days 1, 3, 5, and 7). Twenty-four hours after the last dose of paclitaxel, rats were administered vehicle (2 mL/kg, i.p.) or CP612 (20 mg/kg, i.p.).
Mechanical nociceptive thresholds in rats were quantified by the Randall-Selitto paw pressure test using an Ugo Basile Analgesy-Meter. This device applies a linearly increasing mechanical force to the dorsum or plantar region of the rat hind paw. The mechanical nociceptive threshold is defined as the force in grams at which a rat withdraws its paw. The higher the force to elicit paw withdrawal, the higher the pain threshold (and the lower the sensitivity to pain). For studies testing nociceptive thresholds after the PKCε activator ψεRACK, or after the cancer chemotherapeutic drug paclitaxel, rats were placed into cylindrical acrylic restrainers for 40 minutes before starting each session. The restrainers had lateral ports to allow access to the hind paw, as previously described ([35]), and pain thresholds were measured by applying force to the dorsum of the hind paw. Prior to starting experiments, baseline mechanical nociceptive threshold was obtained as the mean of 2–3 readings on 1 hind paw in each rat.

CN1CC[C@]23c4c5ccc(O)c4O[C@H]2[C@@H](O)C=C[C@H]3[C@H]1C5 [Mor]
AVG AH (FR3) [1]: 25.72
AVG AH (FR6) [1]: 41.83
AVG AH (FR12) [1]: 75.17
AVG AH (FR24) [1]: 136.00
AVG AH (FR48) [1]: 160.11
AVG AH (FR96) [1]: 163.28
AVG IH (FR1_D1 to D4) [1]: 7.83
AVG IH (FR1_Last 2 FR1 days) [1]: 4.44
AVG IH (FR1_Last 4 FR1 days) [1]: 6.31
AVG IH (FR3) [1]: 9.28
AVG IH (FR6) [1]: 8.33
AVG IH (FR12) [1]: 9.39
AVG IH (FR24) [1]: 10.72
AVG IH (FR48) [1]: 14.00
AVG IH (FR96) [1]: 15.22
AVG Inf (FR3) [1]: 7.00
AVG Inf (FR6) [1]: 6.22
AVG Inf (FR12) [1]: 5.56
AVG Inf (FR24) [1]: 5.00
AVG Inf (FR48) [1]: 2.83
AVG Inf (FR96) [1]: 1.17
AVG Latency (FR1_D1 to D4) [1]: 2.60
AVG Latency (FR1_Last 2 FR1 days) [1]: 0.81
AVG Latency (FR1_Last 4 FR1 days) [1]: 0.93
AVG Latency (FR3) [1]: 0.62
AVG Latency (FR6) [1]: 1.19
AVG Latency (FR12) [1]: 1.12
AVG Latency (FR24) [1]: 1.19
AVG Latency (FR48) [1]: 0.69
AVG Latency (FR96) [1]: 0.92
D1 AH (FR1) [1]: 13.44
D1 AH (FR3) [1]: 24.67
D1 AH (FR6) [1]: 38.44
D1 AH (FR12) [1]: 75.11
D1 AH (FR24) [1]: 135.67
D1 AH (FR48) [1]: 167.78
D1 AH (FR96) [1]: 169.67
D1 IH (FR1) [1]: 11.56
D1 IH (FR3) [1]: 9.11
D1 IH (FR6) [1]: 7.11
D1 IH (FR12) [1]: 9.22
D1 IH (FR24) [1]: 10.56
D1 IH (FR48) [1]: 13.22
D1 IH (FR96) [1]: 17.11
D1 Inf (FR1) [1]: 8.78
D1 Inf (FR3) [1]: 6.56
D1 Inf (FR6) [1]: 5.67
D1 Inf (FR12) [1]: 5.67
D1 Inf (FR24) [1]: 4.89
D1 Inf (FR48) [1]: 2.89
D1 Inf (FR96) [1]: 1.33
D1 Latency (FR1) [1]: 7.37
D1 Latency (FR3) [1]: 0.52
D1 Latency (FR6) [1]: 0.51
D1 Latency (FR12) [1]: 0.93
D1 Latency (FR24) [1]: 0.99
D1 Latency (FR48) [1]: 0.71
D1 Latency (FR96) [1]: 1.02
D2 AH (FR1) [1]: 11.44
D2 AH (FR3) [1]: 26.78
D2 AH (FR6) [1]: 45.22
D2 AH (FR12) [1]: 75.22
D2 AH (FR24) [1]: 136.33
D2 AH (FR48) [1]: 152.44
D2 AH (FR96) [1]: 156.89
D2 IH (FR1) [1]: 6.89
D2 IH (FR3) [1]: 9.44
D2 IH (FR6) [1]: 9.56
D2 IH (FR12) [1]: 9.56
D2 IH (FR24) [1]: 10.89
D2 IH (FR48) [1]: 14.78
D2 IH (FR96) [1]: 13.33
D2 Inf (FR1) [1]: 8.89
D2 Inf (FR3) [1]: 7.44
D2 Inf (FR6) [1]: 6.78
D2 Inf (FR12) [1]: 5.44
D2 Inf (FR24) [1]: 5.11
D2 Inf (FR48) [1]: 2.78
D2 Inf (FR96) [1]: 1.00
D2 Latency (FR1) [1]: 0.74
D2 Latency (FR3) [1]: 0.72
D2 Latency (FR6) [1]: 1.88
D2 Latency (FR12) [1]: 1.31
D2 Latency (FR24) [1]: 1.39
D2 Latency (FR48) [1]: 0.68
D2 Latency (FR96) [1]: 0.82
D3 AH (FR1) [1]: 14.11
D3 IH (FR1) [1]: 8.44
D3 Inf (FR1) [1]: 9.22
D3 Latency (FR1) [1]: 1.40
D4 AH (FR1) [1]: 14.00
D4 IH (FR1) [1]: 4.44
D4 Inf (FR1) [1]: 9.56
D4 Latency (FR1) [1]: 0.90
last AH (FR1) [1]: 14.00
last IH (FR1) [1]: 4.44
last Inf (FR1) [1]: 9.78
last Latency (FR1) [1]: 0.71
last-1 AH (FR1) [1]: 14.00
last-1 IH (FR1) [1]: 4.44
last-1 Inf (FR1) [1]: 9.56
last-1 Latency (FR1) [1]: 0.90
last-2 AH (FR1) [1]: 14.11
last-2 IH (FR1) [1]: 8.44
last-2 Inf (FR1) [1]: 9.22
last-2 Latency (FR1) [1]: 1.40
last-3 AH (FR1) [1]: 12.67
last-3 IH (FR1) [1]: 7.89
last-3 Inf (FR1) [1]: 8.89
last-3 Latency (FR1) [1]: 0.69
D3 Breakin Point (PR) ([2]; Day 3, progressive ratio): 38.3
D1 AH (FR6) ([2]; active hole, Day 1, fixed ratio): 49.2
D2 AH (FR6) ([2]; active hole, Day 2, fixed ratio): 68.6
D3 AH (PR) ([2]; active hole, Day 3, progressive ratio): 186.1
D1 IH (FR6) ([2]; inactive hole, Day 1, fixed ratio): 4.7
D2 IH (FR6) ([2]; inactive hole, Day 2, fixed ratio): 5.2
D3 IH (PR) ([2]; inactive hole, Day 3, progressive ratio): 8.8
D1 Inf (FR6) ([2]; infusions, Day 1, fixed ratio): 6.7
D2 Inf (FR6) ([2]; infusions, Day 2, fixed ratio): 9.4
D3 Inf (PR) ([2]; infusions, Day 3, progressive ratio): 10.5
D1 mg/kg (FR6) ([2]; intake, Day 1, fixed ratio): 3.3 mg/kg
D2 mg/kg (FR6) ([2]; intake, Day 2, fixed ratio): 4.7 mg/kg
D3 mg/kg (PR) ([2]; intake, Day 3, progressive ratio): 5.2 mg/kg
D1 Latency (FR6) ([2]; time to first self-administered infusion, Day 1, fixed ratio): 3.3 min
D2 Latency (FR6) ([2]; time to first self-administered infusion, Day 2, fixed ratio): 2.8 min

CC(=O)O[C@H]1C(=O)[C@@]2(C)[C@H]([C@H](OC(=O)c3ccccc3)[C@]3(O)C[C@H](OC(=O)[C@H](O)[C@@H](NC(=O)c4ccccc4)c4ccccc4)C(C)=C1C3(C)C)[C@]1(OC(C)=O)CO[C@@H]1C[C@@H]2O [Paclitaxel]
Effect of paclitaxel on nociceptive threshold [3]: induced hyperalgesia
